# From US12121510B2 (Cedars-Sinai Medical Center, priority 2016, dated 2024)
# Where two headings read alike, the source gives them in different places.
# What was measured:
# [1] = tested on: A549; assay: Cell proliferation IC50, Crystal Violet assay; assay type: cell-based, human; conditions: 72 h
# [2] = tested on: Ramos; assay: Lymphoma cell growth IC50 (MTT); assay type: cell-based, human
# Excerpt: (§1) Exemplary Embodiments are generally performed as follows, unless otherwise noted. Simvastatin is purchased from Ark Pharm, Inc. (Arlington Heights, IL). Cisplatin (CIS) is purchased from MedKoo Biosciences, Inc. (Chapel Hill, NC). Dihydroartemisinin is purchased from TCI America (Portland, OR). All other chemicals and reagents are purchased from standard sources such as Sigma-Aldrich and/or VWR and are of highest quality available. Puromycin dihydrochloride was purchased from Alfa Aesar (Tewksbury, MA). Deionized water ([…]) used for making solutions is obtained from Milli-Q Direct Ultrapure Water System from Millipore (Billerica, MA, USA). All intermediates are characterized by 1H NMR and mass analysis and the purity of compounds are analyzed by HPLC. 1H NMR data are collected on Bruker 400 MHz spectrometers using standard parameters; chemical shifts are reported in ppm (δ) in reference to residual non-deuterated solvent. ESI mass spectroscopy analysis is performed using a Thermo Fisher LTQ Orbitrap Elite system. IC50 is the half maximal inhibitory concentration and determined is determined by crystal violet assay unless otherwise noted.
# (§2) The crystal violet assay is performed as follows, unless otherwise noted. Cell lines are supplemented with RPMI 1640 medium, 10% fetal bovine serum, 1% PenStrep, and placed in a humidified atmosphere containing 5% CO2 at 37° C. 5,000 cells/well renal cancer cells and 10,000 cells/well lymphoma cells are seeded in 96 well plates in 100 microliter medium/per well for 24 h. […] Renal cancer cells are fixed with 3.7% paraformaldehyde for 15 minutes and are stained with Crystal violet solution (0.5% in 25% methanol) for 30 minutes. After rinsing with water cell layers are dried and decolorized with Sorenson citrate with shaking for 20 minutes. Light absorption of the extracted supernatant is read at 595 nm. Lymphoma cell growth was evaluated using MTT and cells are incubated for 4 hours. 100 microliters of isopropanol is added, and the extracted supernatant fraction is read at absorption maximum of 595 nm.
# (§3) Standard cell culture conditions typically are RPMI 1640 medium, 10% fetal bovine serum, 1% PenStrep, and are performed in a humidified atmosphere containing 5% CO2 at 37° C. Generally, 5,000 cells/well-10,000 cells/well are seeded in 96 well plates in 100 microliter medium/per well for 24 h, or as described in Example 16, unless otherwise noted. Certain cells require specialized media, growth factors, antibiotics, or culture condition adjustments, as will be apparent to a person of ordinary skill in the art.
# as §2, with “Cell” for “The crystal violet assay is performed as follows, unless otherwise noted. Cell”, “cultured as follows. […]” for “supplemented with RPMI 1640 medium, 10% fetal bovine serum, 1% PenStrep, and placed in a humidified atmosphere containing 5% CO2 at 37° C.”, “is” for “was”
# [3] = tested on: Namalwa; assay: Lymphoma cell growth IC50 (MTT); assay type: cell-based, human
# Excerpt: as §1, §2, §3
# as §2, with “Cell” for “The crystal violet assay is performed as follows, unless otherwise noted. Cell”, “cultured as follows. […]” for “supplemented with RPMI 1640 medium, 10% fetal bovine serum, 1% PenStrep, and placed in a humidified atmosphere containing 5% CO2 at 37° C.”, “is” for “was”
# [4] = tested on: Daudi; assay: Lymphoma cell growth IC50 (MTT); assay type: cell-based, human
# Excerpt: as §1, §2, §3
# as §2, with “Cell” for “The crystal violet assay is performed as follows, unless otherwise noted. Cell”, “cultured as follows. […]” for “supplemented with RPMI 1640 medium, 10% fetal bovine serum, 1% PenStrep, and placed in a humidified atmosphere containing 5% CO2 at 37° C.”, “is” for “was”
# [5] = tested on: Raji; assay: Lymphoma cell growth IC50 (MTT); assay type: cell-based, human
# Excerpt: as §1, §2, §3
# as §2, with “Cell” for “The crystal violet assay is performed as follows, unless otherwise noted. Cell”, “cultured as follows. […]” for “supplemented with RPMI 1640 medium, 10% fetal bovine serum, 1% PenStrep, and placed in a humidified atmosphere containing 5% CO2 at 37° C.”, “is” for “was”
# [6] = tested on: CA-46; assay: Lymphoma cell growth IC50 (MTT); assay type: cell-based, human
# Excerpt: as §1, §2, §3
# as §2, with “Cell” for “The crystal violet assay is performed as follows, unless otherwise noted. Cell”, “cultured as follows. […]” for “supplemented with RPMI 1640 medium, 10% fetal bovine serum, 1% PenStrep, and placed in a humidified atmosphere containing 5% CO2 at 37° C.”, “is” for “was”
# [7] = tested on: C4-2B; assay: Cancer cell growth IC50 (crystal violet); assay type: cell-based; conditions: Example 15
# Excerpt: as §1, §2, §3
# [8] = tested on: PC3M; assay: Cancer cell growth IC50 (crystal violet); assay type: cell-based; conditions: Example 15
# Excerpt: as §1, §2, §3
# [9] = tested on: FUOV-1; assay: Cancer cell growth IC50 (crystal violet); assay type: cell-based; conditions: Example 15
# Excerpt: as §1, §2, §3
# [10] = tested on: ARCaP-E; assay: Cancer cell growth IC50 (crystal violet); assay type: cell-based; conditions: Example 15
# Excerpt: as §1, §2, §3
# [11] = tested on: LNCaP; assay: Cancer cell growth IC50 (crystal violet); assay type: cell-based; conditions: Example 15
# Excerpt: as §1, §2, §3
# [12] = tested on: CAOV-3; assay: Cancer cell growth IC50 (crystal violet); assay type: cell-based; conditions: Example 15
# Excerpt: as §1, §2, §3
# [13] = tested on: ARCaP-M; assay: Cancer cell growth IC50 (crystal violet); assay type: cell-based; conditions: Example 15
# Excerpt: as §1, §2, §3
# [14] = tested on: 22Rv1; assay: Cancer cell growth IC50 (crystal violet); assay type: cell-based, human; conditions: Example 15
# Excerpt: as §1
# (§4) The crystal violet assay is performed as follows, unless otherwise noted. Cell lines are supplemented with RPMI 1640 medium, 10% fetal bovine serum, 1% PenStrep, and placed in a humidified atmosphere containing 5% CO2 at 37° C. 5,000 cells/well renal cancer cells and 10,000 cells/well lymphoma cells are seeded in 96 well plates in 100 microliter medium/per well for 24 h. […] Renal cancer cells are fixed with 3.7% paraformaldehyde for 15 minutes and are stained with Crystal violet solution (0.5% in 25% methanol) for 30 minutes. After rinsing with water cell layers are dried and decolorized with Sorenson citrate with shaking for 20 minutes. Light absorption of the extracted supernatant is read at 595 nm. Lymphoma cell growth was evaluated using MTT and cells are incubated for 4 hours. 100 microliters of isopropanol is added, and the extracted supernatant fraction is read at absorption maximum of 595 nm. […]
# [15] = tested on: human lymphoma cell lines (Daudi, Raji, Namalwa, Ramos and CA-46); assay: Growth IC50 in lymphoma cell line panel; assay type: cell-based; conditions: all lymphoma cell lines; 72 hours; read-out: IC50 across lymphoma cell lines
# Procedure: as §2
# [16] = tested on: Caki-1; assay: Renal cancer cell growth IC50 (crystal violet); assay type: cell-based, human; conditions: Caki-1
# Excerpt: as §1, §2, §3
# as §2, with “Cell” for “The crystal violet assay is performed as follows, unless otherwise noted. Cell”, “cultured as follows. […]” for “supplemented with RPMI 1640 medium, 10% fetal bovine serum, 1% PenStrep, and placed in a humidified atmosphere containing 5% CO2 at 37° C.”, “is” for “was”
# [17] = tested on: o-786; assay: Renal cancer cell growth IC50 (crystal violet); assay type: cell-based, human
# Excerpt: as §1, §2, §3
# as §2, with “Cell” for “The crystal violet assay is performed as follows, unless otherwise noted. Cell”, “cultured as follows. […]” for “supplemented with RPMI 1640 medium, 10% fetal bovine serum, 1% PenStrep, and placed in a humidified atmosphere containing 5% CO2 at 37° C.”, “is” for “was”
# [18] = tested on: ACHN; assay: Renal cancer cell growth IC50 (crystal violet); assay type: cell-based, human
# Excerpt: as §1, §2, §3
# as §2, with “Cell” for “The crystal violet assay is performed as follows, unless otherwise noted. Cell”, “cultured as follows. […]” for “supplemented with RPMI 1640 medium, 10% fetal bovine serum, 1% PenStrep, and placed in a humidified atmosphere containing 5% CO2 at 37° C.”, “is” for “was”
# [19] = tested on: SKRC; assay: Renal cancer cell growth IC50 (crystal violet); assay type: cell-based, human
# Excerpt: as §1, §2, §3
# as §2, with “Cell” for “The crystal violet assay is performed as follows, unless otherwise noted. Cell”, “cultured as follows. […]” for “supplemented with RPMI 1640 medium, 10% fetal bovine serum, 1% PenStrep, and placed in a humidified atmosphere containing 5% CO2 at 37° C.”, “is” for “was”
# [20] = tested on: MIAPaCa II; assay: Cancer cell growth IC50 / sensitization (crystal violet); assay type: cell-based; conditions: Example 15
# Excerpt: as §1, §4
# [21] = 72 hours, read-out: Half maximal inhibitory concentration (IC50)
compound,measurement,setting,value
"N.N.[Cl][Pt][Cl] [CIS, cis-diamminedichloridoplatinum (II)]",IC50,"[1]; A549 parental, single agent, mean ± SEM, read-out: IC50",26 ± 1.2 µM
same,IC50,"[1]; read-out: IC50 of CIS, Mean, A549, CIS alone",26 µM
same,IC50,[2]; [21],> 64 µM
same,IC50,"[2]; Example 15, read-out: IC50",> 64 µM
same,IC50,[3]; [21],> 64 µM
same,IC50,"[3]; Example 15, read-out: IC50",> 64 µM
same,IC50,[4]; [21],> 64 µM
same,IC50,"[4]; Example 15, read-out: IC50",> 64 µM
same,IC50,[5]; [21],> 64 µM
same,IC50,"[5]; Example 15, read-out: IC50",> 64 µM
same,IC50,"[6]; CA-46, 72 hours, read-out: Half maximal inhibitory concentration (IC50)",> 64 µM
same,IC50,"[6]; Example 15, CA46, read-out: IC50",> 64 µM
same,IC50,[7],> 64 µM
same,IC50,[8],> 64 µM
same,IC50,[9],27.5 µM
same,IC50,[10],> 64 µM
same,IC50,[11],> 64 µM
same,IC50,[12],13.4 µM
same,IC50,[13],> 64 µM
same,IC50,[14],> 64 µM
same,IC50,[15],> 64 µM
same,IC50,[16]; [21],> 64 µM
same,IC50,"[16]; Example 15, read-out: IC50",> 64 µM
same,IC50,"[17]; Example 15, O-786, read-out: IC50",> 64 µM
same,IC50,"[17]; o-786, 72 hours, read-out: Half maximal inhibitory concentration (IC50)",> 64 µM
same,IC50,[18]; [21],> 64 µM
same,IC50,"[18]; Example 15, read-out: IC50",> 64 µM
same,IC50,[19]; [21],> 64 µM
same,IC50,"[19]; Example 15, read-out: IC50",> 64 µM
same,IC50,[20],> 64 µM
